We go through eight compounds from ChEMBL document CHEMBL1201862, “PubChem BioAssay data set” (2004).

Among the test systems are SW-620; UACC-257; TK-10; PC-3; HL-60; MCF7; LOX IMVI; HCT-116; OVCAR-4; NCI-H460; SNB-19; SK-MEL-2; SK-MEL-28; SNB-75; EKVX; NCI-H522; SR; MDA-MB-435; M14; COLO 205.
Experiment in all cases: NCI tumour cell line growth inhibition, 48 h

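Cultured in 96-well plates, cells were exposed to test compound for 48 hours across five concentrations. GI50 is the concentration that inhibits growth by half.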 The source made the active and inactive calls. Rule as the data show it: active = GI50 up to about 1.1 µM and inactive = higher.

Regarding `CCOC(=O)c1c(C)nc2c3ccccc3c(C#N)c(C)n12`, the GI50 with SW-620, in the test on UACC-257, in the test with TK-10, in the test with PC-3, with HL-60 and with MCF7 was > 100 µM (inactive) throughout. Further, the GI50 in the test on LOX IMVI is > 100 µM (inactive); with HCT-116 it was 37.2 µM (inactive); in the test with OVCAR-4, 94 µM (inactive); in the test with NCI-H460 it was 49.4 µM (inactive); with SNB-19, > 100 µM (inactive); in the test with SK-MEL-2 it was > 100 µM (inactive). In addition, the GI50 is > 100 µM (inactive) with SK-MEL-28; 20.6 µM (inactive) with SNB-75; 6.65 µM (inactive) in the test with EKVX; 23 µM (inactive) in the test with NCI-H522; 33.9 µM (inactive) in the test on SR; > 100 µM (inactive) with MDA-MB-435.
For the compound `COc1ccc(-n2c3c(c4c(CN(C)C)c(O)ccc42)C(=O)c2ccccc2C3=O)cc1`, the GI50 is 2.07 µM (inactive) with SW-620; 18.8 µM (inactive) in the test on UACC-257; 17.6 µM (inactive) with TK-10; 13 µM (inactive) in the test on PC-3; 3.13 µM (inactive) in the test with HL-60; 7.18 µM (inactive) with MCF7. Also, the GI50 is 2.49 µM (inactive) in the test with LOX IMVI; 1.68 µM (inactive) in the test with HCT-116; 2.37 µM (inactive) in the test on OVCAR-4; 4.24 µM (inactive) with NCI-H460; 4.4 µM (inactive) with SNB-19; 10 µM (inactive) in the test on SK-MEL-2. The GI50 was 3.38 µM (inactive) with SK-MEL-28; 3.54 µM (inactive) with M14; 7.76 µM (inactive) in the test on EKVX; 12.3 µM (inactive) in the test with NCI-H522; 8.09 µM (inactive) in the test on COLO 205; 2.45 µM (inactive) with SR. Further, the GI50 in the test with MDA-MB-435 was 6.93 µM (inactive).
Consider `CC(NNC(=O)c1ccncc1)c1cccc(C(F)(F)F)c1` (stereo not given), for which the GI50 with SW-620, in the test with UACC-257, with TK-10, in the test on PC-3, in the test on HL-60 and with MCF7 was > 100 µM (inactive) in each case. Also, the GI50 in the test on LOX IMVI, in the test with HCT-116, in the test with OVCAR-4, with NCI-H460, in the test with SK-MEL-2 and in the test with SK-MEL-28 was > 100 µM (inactive) each time. The GI50 with SNB-75, with M14, in the test on EKVX, in the test with NCI-H522, in the test on COLO 205 and in the test on SR was > 100 µM (inactive) throughout. In the test with MDA-MB-435, the GI50 was > 100 µM (inactive).
Consider `COC(=O)C(=O)C(C(=O)OC)C(=O)C(=O)Nc1ccccc1C(N)=O` (stereo not given), for which the GI50 with SW-620, in the test on UACC-257, with TK-10, with PC-3, in the test with HL-60 and in the test on MCF7 was > 100 µM (inactive) each time. Besides, the GI50 with LOX IMVI was > 100 µM (inactive); with HCT-116, > 100 µM (inactive); in the test with OVCAR-4, 66.5 µM (inactive); in the test with NCI-H460, > 10 µM (inactive); in the test on SNB-19, > 100 µM (inactive); in the test with SK-MEL-2, > 100 µM (inactive). Also, the GI50 in the test on SK-MEL-28, with SNB-75, in the test on M14, in the test on EKVX, in the test on NCI-H522 and with SR was > 100 µM (inactive) each time. The GI50 with MDA-MB-435 is > 100 µM (inactive).
On to `CC1CSC(=S)N1C(=O)N1C(=S)SCC1C` (stereo not given), for which the GI50 is 20.4 µM (inactive) with SW-620; 19.3 µM (inactive) in the test on UACC-257; 27.8 µM (inactive) with TK-10; 24.7 µM (inactive) with PC-3; 12.1 µM (inactive) with HL-60; 21.2 µM (inactive) in the test on MCF7. The GI50 is 20.4 µM (inactive) in the test on LOX IMVI; 24.4 µM (inactive) in the test on HCT-116; 24.1 µM (inactive) in the test on NCI-H460; 63.8 µM (inactive) with SNB-19; 21.3 µM (inactive) with SK-MEL-2; 14.3 µM (inactive) in the test with SK-MEL-28. Further, the GI50 was 23.4 µM (inactive) with SNB-75; 21.9 µM (inactive) with M14; 28.8 µM (inactive) with EKVX; 11.5 µM (inactive) with NCI-H522; 16.3 µM (inactive) with COLO 205; 12.5 µM (inactive) in the test on SR. Also, the GI50 with MDA-MB-435 was 17.2 µM (inactive).
Regarding `Cc1c(C#N)c2ccccc2c2nc3ccccc3n12`, the GI50 was 81.3 µM (inactive) in the test with SW-620; > 100 µM (inactive) in the test with UACC-257; > 100 µM (inactive) in the test on TK-10; > 100 µM (inactive) in the test with PC-3; > 100 µM (inactive) in the test with HL-60; 50.9 µM (inactive) with MCF7. For the same compound, the GI50 is 34.4 µM (inactive) with LOX IMVI; 24.9 µM (inactive) in the test with HCT-116; 38.4 µM (inactive) with OVCAR-4; 27.7 µM (inactive) in the test on NCI-H460; > 100 µM (inactive) in the test on SNB-19; > 100 µM (inactive) in the test with SK-MEL-2. In addition, the GI50 with SK-MEL-28 was > 100 µM (inactive); in the test with SNB-75, 73.3 µM (inactive); in the test on EKVX it was > 100 µM (inactive); in the test on NCI-H522, 16.4 µM (inactive); with SR, > 10 µM (inactive); with MDA-MB-435, > 100 µM (inactive).
Regarding `Nc1ccc(Oc2ccc(C34CC5CC6C3CC3CC4C(C5)C6(c4ccc(Oc5ccc(N)c(O)c5)cc4)C3)cc2)cc1O`, the GI50 in the test with SW-620 was 4.25 µM (inactive); in the test on UACC-257, 3.64 µM (inactive); in the test with TK-10 it was 4.92 µM (inactive); in the test on PC-3, 1.66 µM (inactive); in the test on HL-60 it was 0.542 µM (active); with MCF7, 4.55 µM (inactive). Also, the GI50 with LOX IMVI was 2.87 µM (inactive); in the test with HCT-116, 1.31 µM (inactive); in the test with OVCAR-4 it was 4.27 µM (inactive); with NCI-H460 it was 3.56 µM (inactive); in the test on SNB-19 it was 3.57 µM (inactive); in the test on SK-MEL-2 it was 19.5 µM (inactive). Also, the GI50 was 7.06 µM (inactive) in the test on SK-MEL-28; 2.27 µM (inactive) in the test on M14; 1.79 µM (inactive) in the test with EKVX; 1.61 µM (inactive) with NCI-H522; 1.31 µM (inactive) in the test on COLO 205; 1.62 µM (inactive) with SR. Further, in the test with MDA-MB-435, the GI50 is 3.83 µM (inactive).
In the case of `C#CCOC(=O)c1ccccc1O`, the GI50 in the test with SW-620, in the test on UACC-257, with TK-10, in the test with PC-3, in the test with HL-60 and in the test on MCF7 was > 100 µM (inactive) throughout. For the same compound, the GI50 with LOX IMVI, with HCT-116, in the test on OVCAR-4, in the test on NCI-H460, with SNB-19 and in the test on SK-MEL-2 was > 100 µM (inactive) each time. Moreover, the GI50 with SNB-75, with M14, in the test with EKVX, in the test on NCI-H522, in the test on COLO 205 and in the test on SR was > 100 µM (inactive) in each case. Besides, the GI50 with MDA-MB-435 was > 100 µM (inactive).
